Test results from patent publication US5587490A, “Method of inactivation of viral and bacterial blood contaminants” (Credit Managers Association of California, priority 1993, dated 1996).
Read-outs that look alike come from different tables or passages of the source.

Experiments:
bacterial phage λ = assay: UV inactivation of lambda phage in plasma or fetal bovine serum; format: cell-based; details: Escherichia phage Lambda, light or radiation study, 0.5 h; Fetal bovine serum, 0.03 mg/mL, UVA 30 min. (8.4 J/cm^2); read-out: Viral Reduction (log), λ
Description: A stock solution of bacterial phage λ is added to plasma to obtain final titre of 1.2×10^8 PFU/ml and compound No. 3 (structure given above) at 0.1 mg/ml concentration. The mixture was transferred to Pyrex glass photolysis cells and exposed to UV (300-360 nm blue lamp) for 5 minutes. After UV irradiation treatment the final viral titre and Factor VIII activity were measured as described earlier. […] About 3-6 logs of increased viral inactivation was obtained with protein coated viruses using a sensitizer. Only 10% of Factor VIII activity was recovered after viral inactivation treatment.
(§1) Viral inactivation in FBS was carried out in 100 mL serum samples in 225 cm^2 tissue culture flask in the presence of sensitizer 8B (0.03 mg/mL). The sample was exposed to UVA light from top (3.6 mW/cm^2) and bottom (3.4 mW/cm^2) while continuously mixing on an orbital shaker for 30 min. (8.4 J/cm^2). Human plasma was irradiated in a Pyrex glass photolysis cell in the presence of sensitizer 8 (0.1 mg/mL) for 5 min. Inactivation of various bacteriophages were carried out using brominated psoralens in combination with UVA light. The results in Table 5 below clearly indicate that 5-7 logs of viral reduction was obtained with various phage (enveloped and non-enveloped) in human plasma fractions and fetal bovine serum products.

phi 6 phage [1] = assay: UV inactivation of phi 6 in human plasma or fetal bovine serum; format: cell-based; details: light or radiation study, 0.5 h; Fetal bovine serum, 0.03 mg/mL, UVA 30 min. (8.4 J/cm^2); read-out: Viral Reduction (log), phi 6
Description: as §1

platelets [2] = format: cell-based, human
Description: (§2) Human platelet concentrates are mixed with phi 6 bacteriophage, with or without sensitizer, then exposed to U.V. light. Cell quality assays after treatment include morphology score conducted by visual inspection using a light microscope (using a Kunicki scoring system), hypotonic shock response (HSR), aggregation response induced by addition of ADP measured in an aggregometer, and cell number count.
(§3) 1. Soft spin platelet unit at 1000 rpm for 5 min to remove RBC.
(§4) 2. Dilute concentrated platelets with spun autologous plasma to obtain a conc. of 500×10^6 cells/ml.
(§5) 3. Add 5×10^6 of .phi.6 to the platelet suspension and mix gently.
(§6) 4. Add sensitizer to the platelet suspension and incubate for 15 min while protecting from light. Control samples have PBS added.
(§7) 5. Pipet 2 ml aliquots into small plastic petri dishes and irradiate with UV while rotating samples at 100 rpm on a shaker. Irradiate samples without cover.
(§8) 6. Transfer irradiated samples to 15 ml plastic centrifuge tubes.
(§9) 7. Determine morphology, HSR, ADP, Viral inactivation, cell count.
The vital inactivation values and in vitro properties of platelets subjected to viral inactivation treatment using various derivatives of psoralen are summarized in Table 1.
(§10) Single unit platelet concentrates were obtained 24 hours after collection from certified blood banks. The platelet were subjected to soft spin to remove residual RBC and about 6 logs of .phi.6 phage and sensitizer 8B were added in PBS solution to obtain 0.03 mg/mL final sensitizer concentration. The samples were transferred to Stericon™ polyolefin bag (which transmits 60% of UVA light) and irradiated from top (3.6 mW/cm^2) and bottom (3.4 mW/cm^2) in a home made reactor for 10 min. The bags were continuously mixed on extended glass platform attached to orbital shaker. The viral inactivation values and in vitro properties of platelet concentrates were monitored for 2 days after the treatment.

phi 6 bacteriophage = assay: UV inactivation of phi 6 in platelet preparations; format: cell-based; details: for log reduction at 30 µg/mL: Bacteriophage sp., Platelet, light or radiation study, 10 min
Description: as §2, §3, §4, §5, §6, §7, §8, §9
To test the viral inactivation efficiency of brominated sensitizers, platelet preparations (2 mL, PRP) were spiked with .phi.6 phage and brominated psoralen (8B) and non-brominated psoralen(8C) were added to obtain final sensitizer concentration of 0.1 mg/mL. The samples were exposed to UVA light in a home made reactor consisting of 4 UVA lamps for the indicated time periods. The petri dishes containing samples were mixed on an orbital shaker during UVA exposure. The UVA light intensity at the sample position was measured at 3.3 mW/cm^2. The residual viral titer after each time point was measured by plaque method The viral reduction values are illustrated in FIG. 26.
Single unit platelet concentrates were obtained 24 hours after collection from certified blood banks. […] The viral inactivation values and in vitro properties of platelet concentrates were monitored for 2 days after the treatment.

platelet concentrates = assay: pH of platelet concentrates after UV treatment; format: cell-based, human; details: Treated, UVA 10 min
Description: as §10

platelets [3] = assay: Platelet cell count after UV treatment; format: cell-based, human; details: Treated, UVA 10 min
Description: as §10

phi 6 phage [4] = assay: UVA inactivation of phi 6 in packed red cells; format: cell-based
Description: Units of packed red cells were transferred to Stericon™ red cell freezing bags and the hematocrits were adjusted to 60% with PBS. […] The samples were mixed continuously during UVA exposure on an orbital shaker. The final viral titer in the sample was determined by the plaque method. In vitro biochemical and biophysical properties of treated red cells were monitored for 7 day following the treatment.
The viral inactivation kinetics in red cells is dependent on the intensity of the UVA light source. The data in Table 4 below indicate that the time required to achieve 6 logs of viral reduction varies with the intensity of the UVA light source used.

red cells = assay: Red cell in vitro properties following UVA viral inactivation treatment; format: cell-based, human; details: 0.3 mg/mL
Description: Units of packed red cells were transferred to Stericon™ red cell freezing bags and the hematocrits were adjusted to 60% with PBS. The samples were spiked with 5×10^6 PFU/mL .phi.6 phage and 0.3 mg/mL sensitizer 8B. The contents of the bag was exposed to UVA light from top (3.6 mW/cm^2) and bottom (3.4 mW/cm^2) for 6 hours (151.2 J/cm^2). The samples were mixed continuously during UVA exposure on an orbital shaker. The final viral titer in the sample was determined by the plaque method. In vitro biochemical and biophysical properties of treated red cells were monitored for 7 day following the treatment.

[5] = system: Salmonella typhimurium TA98; assay: Ames mutagenicity plate incorporation assay, TA98; format: cell-based; details: average of duplicate plates
[6] = system: Salmonella typhimurium TA100; assay: Ames mutagenicity plate incorporation assay, TA100; format: cell-based; details: average of duplicate plates
[7] = system: Salmonella typhimurium TA1535; assay: Ames mutagenicity plate incorporation assay, TA1535; format: cell-based; details: average of duplicate plates
[8] = system: Salmonella typhimurium TA1537; assay: Ames mutagenicity plate incorporation assay, TA1537; format: cell-based; details: average of duplicate plates
[9] = system: Salmonella typhimurium TA1538; assay: Ames mutagenicity plate incorporation assay, TA1538; format: cell-based; details: average of duplicate plates
salmonella mutants = assay: Standard Ames mutagenicity test, overall outcome; format: cell-based, Salmonella typhimurium; details: 0.6 mg/mL; in words

Structure (SMILES): CC[N+](CC)(CC)CCCOc1c2occc2c(Br)c2ccc(=O)oc12 [Sensitizer 8B]
- log reduction at 30 µg/mL (bacterial phage λ): 6.6
- log reduction at 30 µg/mL (phi 6 phage [1]): 6.5
- ADP Agg. (platelets [2]): 26 ± 10
- fold improvement in the level of viral inactivation, brominated (8B) vs non-brominated (8C) (phi 6 bacteriophage; 0.1 mg/mL, UVA 3.3 mW/cm^2): ≤ 400 fold
- log reduction at 30 µg/mL (phi 6 bacteriophage; read-out: V.I (log10)): 5.3
- log reduction at 30 µg/mL (phi 6 bacteriophage; read-out: viral reduction): > 5.3
- pH (platelet concentrates; 0 Hour): 7.2
- pH (platelet concentrates; 24 Hours): 7.1
- pH (platelet concentrates; 48 Hours): 6.8
- Cell count (platelets [3]; 0 Hour): 474
- Cell count (platelets [3]; 24 Hours): 499
- Cell count (platelets [3]; 48 Hours): 506
- Time Required for 6.0 logs V.I. (phi 6 phage [4]; UV Reactor 1, Top, 3.3 mW/cm^2, 0.1 mg/mL, n = 1): 16.4 Hours
- Time Required for 6.0 logs V.I. (phi 6 phage [4]; UV Reactor 2, Top + Bottom, 3.6/3.4 mW/cm^2, 0.1 mg/mL, n = 9): 7.0 ± 1.2 Hours
- Time Required for 6.0 logs V.I. (phi 6 phage [4]; UV Reactor 3, Top + Bottom, 40/40 mW/cm^2, 0.1 mg/mL, n = 3): 1.3 ± 0.4 Hours
- alterations in in vitro biochemical and biophysical properties (red cells; UVA 6 hours, in words): without any significant alterations in in vitro biochemical and biophysical properties
- % Hemochrome (red cells; Treated, Day 1, UVA 6 hours): 1.9%
- DI Max % control (deformability index) (red cells; Treated, Day 1, UVA 6 hours): 97.4 % control
- MCV (red cells; Treated, Day 1, UVA 6 hours (151.2 J/cm^2)): 88.8
- % Hemochrome (red cells; Treated, Day 2, UVA 6 hours): 0.6%
- DI Max % control (deformability index) (red cells; Treated, Day 2, UVA 6 hours): 99.6 % control
- % Hemochrome (red cells; Treated, Day 7, UVA 6 hours): 0.2%
- DI Max % control (deformability index) (red cells; Treated, Day 7, UVA 6 hours): 99.0 % control
- Number of Revertant Colonies ([5]; w/S-9): 83
- Number of Revertant Colonies ([5]; without S-9): 55
- Number of Revertant Colonies ([6]; w/S-9): 245
- Number of Revertant Colonies ([6]; without S-9): 164
- Number of Revertant Colonies ([7]; w/S-9): 197
- Number of Revertant Colonies ([7]; without S-9): 173
- Number of Revertant Colonies ([8]; w/S-9): 26
- Number of Revertant Colonies ([8]; without S-9): 36
- Number of Revertant Colonies ([9]; w/S-9): 25
- Number of Revertant Colonies ([9]; without S-9): 22
- Ames mutagenicity (salmonella mutants): non-mutagenic
